Legend:
Flag-tagged MAGL enzyme = molecular target: T1, Flag-tagged MAGL enzyme (Homo sapiens, UniProt Q99685); test: Reversible MAGL inhibition, washout of immobilized Flag-tagged MAGL enzyme (Example C); assay type: biochemical; details: for activity at 1 µM: 0.5 h, relative to control (no inhibitor before washout), immediately following a 30 minute washout, pre-washout 1 μM, read-out: % MAGL activity returning after washout; for degree to which MAGL enzymatic activity returned following washout: pre-washout compound concentration 1 μM
T1 sequence (Q99685 1-303): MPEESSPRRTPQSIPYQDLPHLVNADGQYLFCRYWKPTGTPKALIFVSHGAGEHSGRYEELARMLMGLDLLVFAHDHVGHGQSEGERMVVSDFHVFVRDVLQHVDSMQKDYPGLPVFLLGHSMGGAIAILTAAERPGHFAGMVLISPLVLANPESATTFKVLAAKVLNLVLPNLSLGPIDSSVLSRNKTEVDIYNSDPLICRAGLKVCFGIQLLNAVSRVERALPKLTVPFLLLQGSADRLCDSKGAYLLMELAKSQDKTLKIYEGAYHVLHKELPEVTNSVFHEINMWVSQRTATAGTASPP
Experimental: The reversible mechanism of MAGL inhibition of a test compound of Formula (I) can be determined. Flag-tagged MAGL enzyme will be immobilized on anti-Flag beads Immobilized enzyme will be incubated+/−inhibitor at a dose that produces complete inhibition. Colorimetric substrate (4-NPA) will be added and the reaction monitored on a plate reader for 30 minutes to verify complete inhibition. Immobilized enzyme will then be washed thoroughly to remove the inhibitor, and fresh substrate will be added. The reaction will be monitored for an additional 30 minutes; returning enzymatic activity will indicate reversibility of inhibition.
For some test compounds, % activity returning after washout may be less than 100% if complete compound unbinding takes longer than 30 minutes.

[1] = tested on: brain and peripheral 2-AG; brain AA; details: irreversible MAGL inhibition; cited from earlier work
human MAGL = molecular target: T2, human MAGL (Homo sapiens, UniProt Q99685); test: MAGL inhibition potency, 4-nitrophenyl acetate (4NPA) hydrolysis, absorbance 405 nm (Example A); assay type: biochemical; details: Method 12: Reaction Biology MAGL enzyme, 15 nM; 4NPA substrate; read-out: MAGL Potency (Detection Method)
T2 construct: recombinant MAGL enzyme (aa 2-303 RBC, internal preparation)
T2 sequence (Q99685 2-303): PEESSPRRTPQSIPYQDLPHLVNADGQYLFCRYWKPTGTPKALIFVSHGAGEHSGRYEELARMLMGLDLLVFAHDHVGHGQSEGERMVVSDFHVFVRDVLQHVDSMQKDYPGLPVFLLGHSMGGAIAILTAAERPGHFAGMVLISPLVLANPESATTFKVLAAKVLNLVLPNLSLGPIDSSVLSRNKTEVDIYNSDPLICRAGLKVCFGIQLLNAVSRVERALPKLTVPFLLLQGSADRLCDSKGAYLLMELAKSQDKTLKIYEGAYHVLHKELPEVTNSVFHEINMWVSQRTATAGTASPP
Source text: The potency of certain compounds for inhibiting MAGL were obtained using the following assays.
The monoacylglycerol lipase inhibitor screening assay kit from Cayman Chemical was used to measure the MAGL potency for the compounds in Tables A-1, A-2, A-3.
Cayman's Monoacylglycerol Lipase Inhibitor Screening Assay provides a method for screening human MAGL inhibitors. MAGL hydrolyzes 4-nitrophenylacetate resulting in a yellow product, 4-nitrophenol, with an absorbance of 405-412 nm.
MAGL Inhibition was measured by the following assay. Monoacylglycerol Lipase (MAGL) inhibition was measured using recombinant MAGL enzyme (aa 2-303 RBC, internal preparation) and the substrate 4-Nitrophenyl acetate (4NPA) (Sigma-Aldrich, N8130). Hydrolysis of the substrate in the presence of the enzyme was measured by absorbance at 405 nm. 10 μL of assay buffer (10 mM Tris pH 7.5, 1 mM EDTA, 0.9% DMSO) was added to a black 384-well non-binding plate with clear bottom (Greiner, 781906) for each reaction. Compounds were dispensed using an acoustic liquid handler (Echo, Beckman) at 45 nL (0.1% DMSO). Test compounds and control for MAGL inhibitor JZL-184 (Caymen Chemical, 13158) were tested in 10-concentration IC50 mode with 3-fold serial dilution at a starting concentration of […]. DMSO control wells were included for reference. A 10.8 nM (1.8×) MAGL mix in assay buffer was prepared, with 25 μL added to each reaction well, for a final assay concentration of […]. No enzyme wells received 25 μL of buffer. Plate was incubated at room temperature for 30 minutes. 35 mM solution of 4NPA in methanol was prepared daily A 4.5×4NPA substrate solution was prepared in assay buffer and 10 μL was added to each reaction well, for a final assay concentration of 0.25 mM. Plate was spun for 1 minute at 1000 rpm before measuring absorbance using a CLARIOstar plate reader (BMG Labtech). A kinetic reading at 405 nm was done every minute for 30 minutes. Data was analyzed using the linear slope of the reaction progress curve and the average of the no-enzyme wells (background) was subtracted from the data. The background-subtracted slope data was converted to % activity using the average of wells with enzyme and DMSO vehicle. IC50s were calculated using GraphPad software (Sigmoidal dose response, variable slope equation).
Table 8 provides potency measurements of MAGL inhibition measured using the Potency Assay of Example A above, with the following modifications described in Table C.
The number after each letter for potency measurement value indicates the Method from Table C that was used to obtain that measurement value (e.g. “A(1)” indicates an IC50 measurement of <50 nM obtained from the Method 1 of Example A in Table C).

human recombinant FAAH = molecular target: T3, human recombinant FAAH (Homo sapiens, UniProt O00519); test: FAAH counter-screen, AMC arachidonoyl amide substrate (Example B); assay type: biochemical; details: Method B; 20 uM AAMCA substrate
T3 construct: purchased Cayman Chemical 700302 (enzyme); kit Item No. 10005196
T3 sequence (O00519 1-579): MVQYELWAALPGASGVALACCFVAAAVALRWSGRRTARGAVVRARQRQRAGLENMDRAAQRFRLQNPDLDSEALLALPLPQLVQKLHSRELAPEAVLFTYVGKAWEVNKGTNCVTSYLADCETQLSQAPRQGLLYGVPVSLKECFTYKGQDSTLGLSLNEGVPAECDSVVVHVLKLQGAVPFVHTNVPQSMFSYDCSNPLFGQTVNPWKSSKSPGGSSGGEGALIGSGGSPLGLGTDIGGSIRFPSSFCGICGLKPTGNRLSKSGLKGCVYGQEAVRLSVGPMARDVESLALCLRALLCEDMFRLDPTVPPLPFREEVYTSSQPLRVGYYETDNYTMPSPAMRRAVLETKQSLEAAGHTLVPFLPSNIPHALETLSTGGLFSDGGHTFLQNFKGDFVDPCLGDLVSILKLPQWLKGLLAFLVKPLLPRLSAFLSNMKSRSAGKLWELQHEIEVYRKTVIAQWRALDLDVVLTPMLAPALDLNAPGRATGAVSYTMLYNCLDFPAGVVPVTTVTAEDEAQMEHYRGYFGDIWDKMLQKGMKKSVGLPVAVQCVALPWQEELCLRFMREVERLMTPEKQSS
Experimental: Comparative compound potency at FAAH can be obtained with the following assay.
MAGL inhibitor compounds were also counter-screened for FAAH inhibition potency using the following assay. Assessment of FAAH inhibition was performed using Fatty Acid Amide Hydrolase Inhibitor Screening Assay Kit (Cayman Item No. 10005196) following manufacture's instruction with some modifications. The kit utilizes human recombinant FAAH and the fluorescent substrate, AMC Arachidonoyl amide (AAMCA). […] 300 nL or 30 nL of test compounds were delivered into a 384-well black plate (Corning, 3573) using a Labcyte Echo, followed by addition of 15 μL of FAAH enzyme (Cayman, 700302) in assay buffer. After a 5-minute pre-incubation at room temperature, 10 μL of AAMCA was added in assay buffer to start the reaction. Final concentration of FAAH enzyme is not specified and AAMCA substrate was used at the 20 uM. After these dilutions, the final concentration of the test compounds ranged from 100 μM to 5.08 nM or 10 μM down to 0.508 nM. The reaction was allowed to progress for 60 minutes, while the plate was read on an Envision plate reader at an Ex/Em of 350/460 nm with readings every minute. The data was analyzed in Microsoft Excel, using the slope between 30 and 59 minutes. The average of the no-enzyme wells (background) was subtracted from the data. The background-subtracted slope data was converted to % activity using the average of wells with enzyme and DMSO vehicle. IC50 values were calculated using GraphPad software (Sigmoidal dose response, variable slope equation).
Compounds listed in Table D were tested in the FAAH Counter-screen of Example B.

| activity at 1 µM (Flag-tagged MAGL enzyme) [%] | degree to which MAGL enzymatic activity returned following washout (Flag-tagged MAGL enzyme) | IC50 (human MAGL) [µM] | IC50 (human recombinant FAAH) [µM] | SMILES | brain AA [1] | brain and peripheral 2-AG [1] |
| --- | --- | --- | --- | --- | --- | --- |
| > 50 | 135% | < 0.05 | > 10 | O=C(c1cc(O)ccc1F)N1CC2(CC(n3nc(-c4ccc[nH]c4=O)cc3C(F)(F)F)C2)C1 [Compound 12, 3-(1-{2-(2-fluoro-5-hydroxybenzoyl)-2-aza-6-spiro[3.3]heptyl}-5-(trifluoromethyl)-3-pyrazolyl)-2(1H)-pyridinone] | – | – |
| > 50 | 123% | < 0.05 | > 10 | O=C(c1cc(O)ccc1F)N1CC2(CC(n3nc(C(F)(F)F)cc3-c3ccccn3)C2)C1 [Compound 5, (2-fluoro-5-hydroxyphenyl){6-[5-(2-pyridyl)-3-(trifluoromethyl)-1-pyrazolyl]-2-aza-2-spiro[3.3]heptyl}methanone] | – | – |
| > 50 | 122% | < 0.05 | > 10 | O=C(c1cc(O)ccc1F)N1CC2(CC(n3nc(-c4ccc(=O)[nH]c4)cc3C(F)(F)F)C2)C1 [Compound 10, 5-(1-{2-(2-fluoro-5-hydroxybenzoyl)-2-aza-6-spiro[3.3]heptyl}-5-(trifluoromethyl)-3-pyrazolyl)-2(1H)-pyridinone] | – | – |
| > 50 | 89% | < 0.05 | > 10 | COc1ccc(-c2cc(C(F)(F)F)n(C3CC4(C3)CN(C(=O)c3cc(O)ccc3F)C4)n2)cn1 [Compound 17, (2-fluoro-5-hydroxyphenyl) (6-(3-(6-methoxypyridin-3-yl)-5-(trifluoromethyl)-1H-pyrazol-1-yl)-2-azaspiro [3.3]heptan-2-yl) methanone] | – | – |
| > 50 | 99% | < 0.05 | > 10 | COc1ncccc1-c1cc(C(F)(F)F)n(C2CC3(C2)CN(C(=O)c2cc(O)ccc2F)C3)n1 [Compound 15, (2-fluoro-5-hydroxyphenyl)(6-(3-(2-methoxypyridin-3-yl)-5-(trifluoromethyl)-1H1-pyrazol-1-yl)-2-azaspiro[3.3]heptan-2-yl)methanone] | – | – |

| SMILES | activity at 1 µM (Flag-tagged MAGL enzyme) [%] | degree to which MAGL enzymatic activity returned following washout (Flag-tagged MAGL enzyme) | IC50 (human MAGL) [µM] | IC50 (human recombinant FAAH) [µM] | brain AA [1] | brain and peripheral 2-AG [1] |
| --- | --- | --- | --- | --- | --- | --- |
| O=C(Oc1ccc([N+](=O)[O-])cc1)N1CCC(C(O)(c2ccc3c(c2)OCO3)c2ccc3c(c2)OCO3)CC1 [JZL-184, reference compound] | < 1 | complete lack of return of MAGL enzymatic activity | – | – | reduce | increase |
